These are literature values, as cited in patent publication US11291673B2, “Topical doxycycline hydrogel with improved long-term stability” (Nanopharmaceutics, Inc., priority 2019, dated 2022).

Data set [1] has as its system experimental dry eye (EDE) model.
Another data set deals with mastitis. The note with it: homogeneous suspension applied to the udder of a cow.
For data set [2] the following is noted: compared to aqueous suspensions containing amphoteric dioxytetracycline.

In the case of `C[C@H]1c2cccc(O)c2C(O)=C2C(=O)[C@]3(O)C(O)=C(C(N)=O)C(=O)[C@H](N(C)C)[C@@H]3[C@@H](O)[C@@H]21` [4-epidoxycycline], the “anti-inflammatory and anti-proteolytic effects” value in data set [1] is “lack of anti-inflammatory and anti-proteolytic effects”.
For `C[C@@H]1c2cccc(O)c2C(O)=C2C(=O)[C@]3(O)C(O)=C(C(N)=O)C(=O)[C@@H](N(C)C)[C@@H]3[C@@H](O)[C@@H]21` [6-epidoxycycline], the “anti-inflammatory and anti-proteolytic effects” value in data set [1] was “lack of anti-inflammatory and anti-proteolytic effects”.
For `C[C@H]1c2cccc(O)c2C(=O)C2=C(O)[C@]3(O)C(=O)C(C(N)=O)=C(O)[C@@H](N(C)C)[C@@H]3[C@@H](O)[C@@H]21` [Doxycycline monohydrate], the aqueous solubility (pHs above 6) is below 800 µg/mL.
Turning to `C[C@H]1c2cccc(O)c2C(=O)C2=C(O)[C@]3(O)C(=O)C(C(N)=O)=C(O)[C@@H](N(C)C)[C@@H]3[C@@H](O)[C@@H]21` [Doxycycline], the solubility result (neutral pH) was “less than 10 mg/ml”.
With calcium dioxytetracycline, the alleviation of mastitis result with mastitis is “rapid and complete alleviation of mastitis”. Besides, in data set [2], the stability of suspension result is “superior stability”.
